Values quoted from earlier work as cited in patent publication US20020137692A1, “Novel compositions of potassium channel openers and protein kinase C inhibitors and use thereof” (Pharmacia AB, priority 2001, published 2002).

Row | Molecule | stimulation of hair keratinocytes (hair keratinocytes) | hair growth stimulation (C3H mouse) | anagen induction in vivo (hair growth)
1 | Oc1cc(O)c2c(c1)O[C@H](c1ccc(O)c(O)c1)[C@H](O)[C@H]2c1c(O)cc(O)c2c1O[C@H](c1ccc(O)c(O)c1)[C@@H](O)C2 [procyanidin B1] | stimulation of hair keratinocytes | hair growth stimulation | 
2 | CCCCCCCCCCCCCCCCOP(=O)([O-])OCC[N+](C)(C)C [hexadecylphosphocholine] |  |  | marked anagen induction
3 | CCCCCCCCCCCCCCCC(=O)OC(CC(=O)O)C[N+](C)(C)C.[Cl-] (racemic) [palmitoyl-DL-carnitine chloride] |  |  | marked anagen induction
4 | Oc1cc(O)c2c(c1)O[C@H](c1ccc(O)c(O)c1)[C@H](O)[C@H]2c1c(O)cc(O)c2c1O[C@H](c1ccc(O)c(O)c1)[C@H](O)[C@H]2c1c(O)cc(O)c2c1O[C@H](c1ccc(O)c(O)c1)[C@H](O)C2 [procyanidin C1] | stimulation of hair keratinocytes | hair growth stimulation | marked anagen induction
5 | Oc1cc(O)c2c(c1)O[C@H](c1ccc(O)c(O)c1)[C@H](O)[C@H]2c1c(O)cc(O)c2c1O[C@H](c1ccc(O)c(O)c1)[C@H](O)C2 [procyanidin B2] | stimulation of hair keratinocytes | hair growth stimulation | marked anagen induction
6 | Oc1cc(O)c2c(c1)O[C@H](c1ccc(O)c(O)c1)[C@@H](O)[C@@H]2c1c(O)cc(O)c2c1O[C@H](c1ccc(O)c(O)c1)[C@@H](O)C2 [Solution B3, procyanidin B3] | stimulation of hair keratinocytes | hair growth stimulation | 
7 | polymyxin B sulfate |  |  | marked anagen induction
8 | calphostin C |  |  | marked anagen induction
